Experimental data: patent US9775844B2, “Heterocyclic compounds and uses thereof” (Infinity Pharmaceuticals, Inc., priority 2014, dated 2017)
Like-named read-outs stand apart in the source and are kept apart here.

Experiments:
human T cells = test: Concanavalin A-induced model for activation of human T cells (IFN-γ); assay type: cell-based; conditions: at isoform selective concentrations
4T1 breast cancer = test: Subcutaneous 4T1 breast cancer model; assay type: in vivo
[1] = system: differentiation of myeloid cells into M2 TAMs; test: Murine M2 TAM differentiation (ARG1 levels); assay type: cell-based, mouse; conditions: FIG. 22A/22B
From the text: High ARG1 (Arginase-1) levels indicate that myeloid cells are differentiating into M2 macrophages, so lower ARG1 levels relative to a control indicate interference with differentiation into M2 macrophages. Expression of Arginase-1 depletes the tumor microenvironment of arginine, thereby promoting T cell death and NK cell inhibition. Schmid et. al., Proceedings: AACR 103rd Annual Meeting 2012, Cancer Research: Apr. 15, 2012; Volume 72, Issue 8, Supplement 1. […] M2 TAMs promote cancer cell survival (FIG. 23).
M2 macrophages can be produced as follows. Sacrifice mouse and collect femur and tibias Immerse the bones on a petri dish in 70% ethanol for 1-2 min, then remove the bones and let the ethanol dry off for 3-4 min. Cut off a very small portion of the end of the bones to make an easy access for needle insert. Using a 27 g needle filled will media containing DMEM+10% FBS+1% Pen/Strep (complete DMEM), expel the bone marrow from both ends of the bones into a 15 ml petri dish. Pipette the bone marrow to dissociate the bone marrow cells. Centrifuge and add 1× Red Cell lysis buffer to the pellet. Let RBC lyse for 2 min then add equal amount of complete DMEM and centrifuge. The bone marrow from one mouse can be divided into 2 petri dishes containing 7 ml of BMM media (DMEM+20% FBS+1% Pen/Strep+50 ng/ml M-CSF). […] The cells are ready for polarization on day 6. […]

[2] = Unbound concentrations in tumor and plasma, LLC model, 12 days daily oral administration; assay type: in vivo, mouse; conditions: Plasma, 12 days daily oral administration in NMP solution, read-out: Free Conc
From the text: Below is a table of details:

MC38 tumor cells = test: MC38 colon cancer model; assay type: in vivo, mouse
Experimental: In this model, a syngeneic colon cancer cell line is run subcutaneously. The experimental setup was as follows.
The cell injection volume was 0.05 ml per mouse. When tumors reached an average size of 80-100 mm^3, a pair match was made and treatment began. The tumor was measured by caliper biweekly.
The dosing volume was 5 mL/kg.
For all animals, blood was collected by terminal cardiac puncture under isoflurane anesthesia. The blood was processed for plasma. In addition, tumor samples were collected.
At study end, tumors were isolated, fixed in 10% neutral buffered formalin and embedded in paraffin for histologic analysis. […] T-cells within the tumor sections were identified utilizing a CD3-specific antibody via automated immunohistochemistry equipment (Ventana). Once stained, slides were digitalized via Aperio slide scanning equipment. Next, stained tumor sections were quantified via Definians software to assess the percentage of CD3 positive cells within each tumor.

[3] = system: KPC Pancreatic Cancer cells; test: RNA expression profiling (TLDA) of KPC pancreatic cancer tumors; assay type: in vivo, mouse
Experimental: RNA expression profiling was performed for immuno-phenotyping with a Taqman low density array (TLDA).
For mouse tumors, snap frozen samples were powdered with a Genogrinder at liquid nitrogen temperatures and RNA was isolated with Trizol. Next, the sample was cleaned-up using Qiashredder, and then using a RNeasy kit.
CT values were used for analysis. For each sample Si and each gene, the following values were calculated: dCT(Si,gene)=CT(Si,gene)−CT(Si,ACTB) ddCT(Si,gene)=dCT(Si,gene)−median(dCT(vehicle treated samples, gene)) RQ(Si, gene)=2^(−ddCT(Si,gene))
This produced a matrix of RQ values: 48 genes (rows)×39 samples (cols).
The analysis used R package Non-negative Matrix Factorization (NMF) with rank=3 and the “lee” algorithm.

[4] = Stability in simulated gastric fluid; assay type: physicochemical; conditions: 38°
From the text: The phyiscochemical properties of Compound BB are drug-like, and suitable for use of the compound as a drug.

[5] = Pharmacokinetics in dog, oral; assay type: in vivo; conditions: 5 mg/kg oral
From the text: Compound BB's oral exposure is high in rat, dog and monkey. Good oral bioavailability and low clearance in rodent and non-rodent animal species results in high oral exposure.

[6] = Target organ toxicity (TOT) study, 10 days oral; assay type: in vivo
Experimental: A target organ toxicity (TOT) study was performed in rats. […] This study assessed clinical observations/mortality, body weights, clinical pathology, toxicokinetics, and histopathology of select tissues. The tissues studied were: Adrenal gland, Bone marrow (femur), Brain, Small Intestine (including GALT), Heart, Large Intestine, Kidney, Stomach, Liver, Pancreas, Spleen, Testis, and Thymus. Doses were selected based on repeat-dose tolerability study, PK and plasma protein binding, and cellular IC50s for PI3K isoforms.

GL-261 = GL-261 glioma model with or without temozolomide; assay type: in vivo, mouse
Experimental: TMZ was dosed IP 1×/day for 7 days.
Animals: C57 Albino mice (male) from Jackson Labs, n=80. Parameters Evaluated:
In life: Mice were dosed QD with Compound BB. Temozolomide was dosed QD IP, for 7 days. Tumor measurements and bodyweights were taken 2×/week, but caliper and xenogen measurements.
End point analysis: Tumors were cut in half. One half was cut in half again with 1/2 fixed in 10% NBF the other was frozen in OCT for frozen sections. The remaining half was processed to single cell suspention and evaluated by FACS.
PD satilite group—8 mice from the TMZ treated mice and 8 mice from the vehicle treated mice were sacrificed on day 7 post treatment. Tumors were processed to single cell suspention and evaluated by FACS.

[7] = system: CXCL12 stimulated pAKT in T cells and monocytes; test: Ex vivo whole blood CXCL12 stimulation of phospho-AKT, LLC-bearing mice; assay type: in vivo, mouse; conditions: 12 days QD PO, 2 h post dose
Experimental: C57 BL/6 Albino mice were implanted with 1×10^6 cells in a SC injection in the hind flank. The cell implant material was generated from brei that was passaged from mouse to mouse. Treatment started when tumors were between 160-180 mm^3 Mice were dosed for 12 days, QD, PO with vehicle, 15, 7.5 or 3 mg/kg. On day 12 mice were dosed and terminal blood was collected 2 h post dose by cardiac stick collection. Blood was placed in EDTA K2 collection tube and stored at room temp for PD analysis.
Blood from each animal was aliquotted into 2 plates and warmed to 37° C. degrees. PBS was added to one plate as an unstimulated control. Murine CXCL12/SDF-1 was added to the second plate to a final concentration of 800 ng/mL and plate was returned to the 37° C. degree block. After 2 minutes of incubation, blood was lysed and fixed using paraformaldehyde. Samples were washed and frozen until flow cytometric analysis. T cells were gated using an antibody to CD3 and monocytes were gated as LY6G^− LY6C^high. Intracellular pAKT […] was measured and percent positive was used for graphing.

Cyp = Cyp Induction (activity and mRNA); assay type: in vitro ADME
[8] = system: IL-8 induced neutrophil migration; test: IL-8 driven murine air pouch model; conditions: mouse air pouch; BB 0.1-3 mg/kg, AA 10-50 mg/kg

## C[C@H](NC(=O)c1c(N)nn2cccnc12)c1cc2cccc(C#Cc3cnn(C)c3)c2c(=O)n1-c1ccccc1 [Compound BB]
Human T cells
  effect on IFN-γ: little to no effect
4T1 breast cancer
  single agent activity: demonstrated single agent activity
4T1 breast cancer; co-administration with docetaxel, paclitaxel, or 5-FU
  tumor growth: achieved a further reduction in tumor growth
[1]
  M2 TAM differentiation (ARG1 levels): inhibited M2 TAM differentiation much more effectively than PI3K-δ inhibitor
[2]; C57 Albino, mouse, 3 mg/kg, 2 h
  concentration at 2 h: 25.9 nM
[2]; C57 Albino, mouse, 7.5 mg/kg, 2 h
  concentration at 2 h: 99 nM
[2]; C57 Albino, mouse, 15 mg/kg, 2 h
  concentration at 2 h: 157 nM
[2]; 3 mg/kg, Trough
  concentration at 2 h: 0.75 nM
[2]; 7.5 mg/kg, Trough
  concentration at 2 h: 8.99 nM
[2]; 15 mg/kg, Trough
  concentration at 2 h: 8.39 nM
MC38 tumor cells; MC38 tumors vs vehicle, IHC
  intratumoral CD3+ T cells: significantly more intratumoral CD3+T cells
MC38 tumor cells; monotherapy, FIG. 29A
  tumor growth, MC38 colon cancer model: significantly inhibited tumor growth
[3]; 3 mg/kg, with or without PDL-1 antibody
  M2 macrophage markers VEGF and ARG-1 (RNA): trended towards reduction
[3]; alone
  T regulatory and T effector genes (RNA): trend in lower T regulatory and T effector genes
[4]
  stability in simulated gastric fluid: > 4 h
[5]
  oral exposure (plasma concentrations within 24 hours): high
[6]; high dose animals (50 mg/kg/day)
  decrease in body weights compared to vehicle: 5-8%
[6]; males at ≧7.5 mg/kg/day, females at 50 mg/kg/day
  histopathology, thymus: minimal/mild lymphoid depletion
[6]; primarily at doses ≧20 mg/kg/day
  histopathology, spleen (marginal zone and PALS): minimal/mild lymphoid depletion
[6]; primarily in 20 and 50 mg/kg/day groups
  clinical pathology: minimal changes in neutrophils, lymphocytes, and fibrinogen
[6]; rats, oral, 10 days
  histopathology, gross changes: no significant gross changes
[6]; rats, oral, 10 days, 1 to 50 mg/kg/day
  tolerability: well-tolerated
[6]; rats, oral, 10 days, any dose level
  mortality and clinical signs: No mortality or clinical signs
GL-261; 15 mg/kg QD PO following TMZ @ 1 mg/kg
  tumor volume, GL-261, compared to vehicle: significant reduction in tumor volume
GL-261; treated from the start of treatment, 15 mg/kg QD PO
  tumor volume, GL-261, compared to vehicle: significant reduction in tumor volume
[7]
  ex vivo whole blood CXCL12 stimulation of phospho-AKT in T cells: inhibits
  ex vivo whole blood CXCL12 stimulation of phospho-AKT in monocytes: inhibits
Cyp
  Cyp Induction @ 10 uM: Neg (activity and mRNA)
[8]
  IL-8 induced neutrophil migration: blocks IL-8 induced neutrophil migration
